# US8017612B2, “Piperazine compound and use thereof as a HCV polymerase inhibitor” (priority 2006, dated 2011)
# Structures can show the parent of a compound that is named as a salt.
# Columns and labels:
# [1] = biological target: T1, HCV polymerase (NS5B) type 1b (Hepatitis C virus genotype 1b, UniProt P26663); experiment: Assay of enzyme (HCV polymerase) inhibitory activity, type 1b enzyme; type: biochemical, HCV BK strain (type 1b)
# T1 construct: a region encoding NS5B (J Virol 1991 March, 65(3), 1105-13, 544 amino acids after deletion of 47 amino acids on the C-terminal); 6xHis (C); made in house; host or cells: Escherichia coli
# Description: (§1) The evaluation of the HCV polymerase inhibitory activity of the compound of the present invention is explained in the following. This polymerase is an enzyme coded for by the non-structural protein region called NS5B on the genome RNA of HCV.
# (§2) i) Preparation of Enzyme (HCV Polymerase)
# (§3) Using, as a template, a cDNA clone corresponding to the full length genome RNA of HCV BK strain (type 1b) obtained from the blood of a patient with hepatitis C, a region encoding NS5B (J Virol 1991 March, 65(3), 1105-13, 544 amino acids after deletion of 47 amino acids on the C-terminal) was amplified by PCR. The objective gene was prepared by adding a 6 His tag {base pair encoding 6 continuous histidine (His)} to the 3′ end thereof and transformed to Escherichia coli. The Escherichia coli capable of producing the objective protein was cultured. The obtained cells were suspended in a buffer solution and crushed in a microfluidizer. The supernatant was obtained by centrifugation and applied to various column chromatographys {mono-S, Sephacryl S-200 (Pharmacia)}, inclusive of metal chelate chromatography, to give a standard enzyme product.
# (§4) ii) Synthesis of Substrate RNA
# (§5) Using a synthetic primer designed based on the sequence of HCV genomic 3′ untranslated region, a DNA fragment (148 bp) containing polyU and 3′X sequence was entirely synthesized and cloned into plasmid pBluescript SK II(+) (Stratagene). The cDNA encoding full length NS5B, which was prepared in i) above, was digested with restriction enzyme KpnI to give a cDNA fragment containing the nucleotide sequence of from the restriction enzyme cleavage site to the termination codon. This cDNA fragment was inserted into the upstream of 3′ untranslated region of the DNA in pBluescript SK II(+) and ligated. The about 450 bp inserted DNA sequence was used as a template in the preparation of substrate RNA. This plasmid was cleaved immediately after the 3′X sequence, linearized and purified by phenol-chloroform treatment and ethanol precipitation to give DNA.
# (§6) RNA was synthesized (37° C., 4 hr) by run-off method using this purified DNA as a template, a promoter of pBluescript SK II(+), MEGAscript RNA synthesis kit (Ambion) and T7 RNA polymerase. DNase I was added and the mixture was incubated for 1 hr. The template DNA was removed by decomposition to give a crude RNA product. This crude product was treated with phenol-chloroform and purified by ethanol precipitation to give the objective substrate RNA.
# (§7) This RNA was applied to urea denaturation polyacrylamide gel electrophoresis to confirm the quality thereof and preserved at −80° C.
# (§8) iii) Assay of Enzyme (HCV Polymerase) inhibitory activity
# (§9) A test substance (compound of the present invention) and a reaction mixture (30 μl) having the following composition were reacted at 25° C. for 60 min.
# (§10) 10% Trichloroacetic acid and 1% sodium pyrophosphate solution (150 μl) at 4° C. was added to this reaction mixture to stop the reaction. The reaction mixture was left standing at 4° C. for 15 min to insolubilize RNA. This RNA was trapped on a glass filter (PerkinElmer, GF/B) upon filtration by suction. This filter was washed with a solution containing 1% trichloroacetic acid and 0.1% sodium pyrophosphate, washed with 90% ethanol and dried. A liquid scintillation cocktail (PerkinElmer) was added and the radioactivity of RNA synthesized by the enzyme reaction was measured on a liquid scintillation counter.
# The HCV polymerase inhibitory activity (IC50) of the compound of the present invention was calculated from the values of radioactivity of the enzyme reaction with and without the test substance.
# Reaction mixture: HCV polymerase (type 1b 0.5 μg/ml or type 1a 1.5 μg/m) obtained in i), substrate RNA (5 μg/ml) obtained in ii), ATP (50 μM), GTP (50 μM), CTP (50 μM), UTP (2 μM), [5,6-^3H]UTP (30-60 Ci/mmol (Amersham Biosciences), 1 μCi) 20 mM Tris-HCl (pH 7.5), EDTA (1 mM), MgCl2 (5 mM), NaCl (50 mM), DTT (1 mM), BSA (0.01%)
# [2] = biological target: T2, HCV polymerase (NS5B) type 1a (Hepatitis C virus genotype 1a, UniProt P26664); experiment: Assay of enzyme (HCV polymerase) inhibitory activity, type 1a enzyme; type: biochemical, HCV type 1a (cloned from the blood of patients)
# T2 construct: made in house; host or cells: Escherichia coli (by the 'similar method' of the 1b enzyme)
# Description: as §1, §2, §3
# Standard enzyme products for type 1a (cloned from the blood of patients) were also obtained by a similar method.
# as §4, §5, §6, §7, §8, §9, §10
# The HCV polymerase inhibitory activity (IC50) of the compound of the present invention was calculated from the values of radioactivity of the enzyme reaction with and without the test substance. […]
# [3] = HCV polymerase inhibitory activity (IC50), 1b, type 1b enzyme 0.5 μg/ml, 25° C., 60 min
# [4] = HCV polymerase inhibitory activity (IC50), 1a, type 1a enzyme 1.5 μg/ml, 25° C., 60 min
# [5] = HCV polymerase inhibitory activity IC50, 1b, type 1b enzyme
# [6] = HCV polymerase inhibitory activity IC50, 1a, type 1a enzyme
SMILES,"IC50 [1, 3]","IC50 [2, 4]","IC50 [1, 5]","IC50 [2, 6]"
"CC(C)c1ccc(CNC(=O)[C@H]2CN(C(=O)Nc3ccncc3)CCN2S(=O)(=O)c2ccc(OC(F)(F)F)cc2)cc1 [Example 318, (R)-4-(4-trifluoromethoxy-benzenesulfonyl)-piperazine-1,3-dicarboxylic acid 3-(4-isopropyl-benzylamide) 1-pyridin-4-ylamide]",< 100 nM,< 100 nM,–,–
"CCC(F)(F)c1ccc(CNC(=O)[C@H]2CN(c3nc4ccncc4[nH]3)CCN2S(=O)(=O)c2ccc(OC(F)(F)F)cc2)cc1 [Example 756, (R)-4-(3H-imidazo[4,5-c]pyridin-2-yl)-1-(4-trifluoromethoxy-benzenesulfonyl)-piperazine-2-carboxylic acid 4-(1,1-difluoro-propyl)-benzylamide]",–,–,< 100 nM,< 100 nM
"NC(=O)c1ncc2sc(N3CCN(S(=O)(=O)c4ccc(C(F)(F)F)cc4)[C@@H](C(=O)NCc4ccc(OC(F)(F)F)cc4)C3)nc2n1 [Example 1013, 2-[(R)-3-(4-trifluoromethoxy-benzylcarbamoyl)-4-(4-trifluoromethyl-benzenesulfonyl)-piperazin-1-yl]-thiazolo[4,5-d]pyrimidine-5-carboxylic acid amide]",–,–,< 100 nM,< 100 nM
"O=C(NCc1ccc(OC(F)F)cc1)[C@H]1CN(c2nn3cnnc3s2)CCN1S(=O)(=O)c1ccc(OC(F)(F)F)cc1 [Example 954, (R)-4-[1,2,4]triazolo[3,4-b][1,3,4]thiadiazol-6-yl-1-(4-trifluoromethoxy-benzenesulfonyl)-piperazine-2-carboxylic acid 4-difluoromethoxy-benzylamide]",–,–,< 100 nM,< 100 nM
"COc1ccc(S(=O)(=O)N2CCN(C(C)=O)C[C@@H]2C(=O)NCc2ccc(C(C)C)cc2)cc1CC(=O)O [Example 221, {5-[(R)-4-acetyl-2-(4-isopropyl-benzylcarbamoyl)-piperazine-1-sulfonyl]-2-methoxy-phenyl}-acetic acid]",> 1000 nM,> 1000 nM,–,–
"CCC(F)(F)c1ccc(CNC(=O)[C@H]2CN(c3ccc4nccnc4n3)CCN2S(=O)(=O)c2ccc(OC(F)(F)F)cc2)cc1 [Example 748, (R)-4-pyrido[2,3-b]pyrazin-6-yl-1-(4-trifluoromethoxy-benzenesulfonyl)-piperazine-2-carboxylic acid 4-(1,1-difluoro-propyl)-benzylamide]",–,–,< 100 nM,< 100 nM
"CCC(F)(F)c1ccc(CNC(=O)[C@H]2CN(C(=O)Nc3ccnc(C(=O)N4CCOCC4)c3)CCN2S(=O)(=O)c2ccc(OC(F)(F)F)cc2)cc1 [Example 513, (R)-4-(4-trifluoromethoxy-benzenesulfonyl)-piperazine-1,3-dicarboxylic acid 3-[4-(1,1-difluoro-propyl)-benzylamide] 1-{[2-(morpholine-4-carbonyl)-pyridin-4-yl]-amide}]",< 100 nM,< 100 nM,–,–
"CCCc1ccc(CNC(=O)[C@H]2CN(c3nc4c(C(=O)OCC)nnc(Cl)c4s3)CCN2S(=O)(=O)c2ccc(CC)cc2)cc1 [Example 880, 7-chloro-2-[(R)-4-(4-ethyl-benzenesulfonyl)-3-(4-propyl-benzylcarbamoyl)-piperazin-1-yl]-thiazolo[4,5-d]pyridazine-4-carboxylic acid ethyl ester]",–,–,< 100 nM,< 100 nM
"CC(C)c1ccc(CNC(=O)[C@H]2CN(c3cnc(C(=O)O)cn3)CCN2S(=O)(=O)c2ccc(OC(F)(F)F)cc2)cc1 [Example 385, (R)-3-(4-isopropyl-benzylcarbamoyl)-4-(4-trifluoromethoxy-benzenesulfonyl)-3,4,5,6-tetrahydro-2H-[1,2′]bipyrazinyl-5′-carboxylic acid]",< 100 nM,< 100 nM,–,–
"O=C(NCc1ccc(OC(F)(F)C(F)F)cc1)[C@H]1CN(c2nc3cn[nH]c(=O)c3s2)CCN1S(=O)(=O)c1ccc(OC(F)(F)F)cc1 [Example 898, (R)-4-(7-oxo-6,7-dihydro-thiazolo[4,5-d]pyridazin-2-yl)-1-(4-trifluoromethoxy-benzenesulfonyl)-piperazine-2-carboxylic acid 4-(1,1,2,2-tetrafluoro-ethoxy)-benzylamide]",–,–,< 100 nM,< 100 nM
"CC(C)c1ccc(S(=O)(=O)N2CCN(C(N)=O)CC2C(=O)NCc2ccc(C(F)(F)F)cc2)cc1 (stereo not shown) [Example 350, 4-(4-isopropyl-benzenesulfonyl)-piperazine-1,3-dicarboxylic acid 1-amide 3-(4-trifluoromethyl-benzylamide)]",> 1000 nM,> 1000 nM,–,–
"Cc1nc(N2CCN(S(=O)(=O)c3ccc(C(F)(F)F)cc3)[C@@H](C(=O)NCc3ccc(C(C)C)cc3)C2)ncc1C(=O)O [Example 338, 2-[(R)-3-(4-isopropyl-benzylcarbamoyl)-4-(4-trifluoromethyl-benzenesulfonyl)-piperazin-1-yl]-4-methyl-pyrimidine-5-carboxylic acid]",100 to 1000 nM,> 1000 nM,–,–
"CCCc1ccc(CNC(=O)[C@H]2CN(c3nc4c(C(=O)OCC)cncc4s3)CCN2S(=O)(=O)c2ccc(CC)cc2)cc1 [Example 1064, 2-[(R)-4-(4-ethyl-benzenesulfonyl)-3-(4-propyl-benzylcarbamoyl)-piperazin-1-yl]-thiazolo[5,4-c]pyridine-7-carboxylic acid ethyl ester]",–,–,< 100 nM,< 100 nM
"CC(C)c1ccc(S(=O)(=O)N2CCNCC2C(=O)NCc2ccc(C(F)(F)F)cc2)cc1 (stereo not shown) [Example 15, 1-(4-isopropyl-benzenesulfonyl)-piperazine-2-carboxylic acid 4-trifluoromethyl-benzylamide hydrochloride]",> 1000 nM,> 1000 nM,–,–
"CCC(F)(F)c1ccc(CNC(=O)[C@H]2CN(C(=O)Nc3ccnc(C(=O)N(C)C)c3)CCN2S(=O)(=O)c2ccc(OC(F)(F)F)cc2)cc1 [Example 504, (R)-4-(4-trifluoromethoxy-benzenesulfonyl)-piperazine-1,3-dicarboxylic acid 3-[4-(1,1-difluoro-propyl)-benzylamide] 1-[(2-dimethylcarbamoyl-pyridin-4-yl)-amide]]",< 100 nM,< 100 nM,–,–
"CCCc1ccc(S(=O)(=O)N2CCN(c3nc(C)c(C(=O)OC)s3)C[C@@H]2C(=O)NCc2ccc(C(C)C)cc2)cc1 [Example 297, 2-[(R)-3-(4-isopropyl-benzylcarbamoyl)-4-(4-propyl-benzenesulfonyl)-piperazin-1-yl]-4-methyl-thiazole-5-carboxylic acid methyl ester]",< 100 nM,< 100 nM,–,–
"O=C(NCC1CN(c2ccccc2)C1)[C@H]1CN(c2cnc3cncnc3n2)CCN1S(=O)(=O)c1ccc(OC(F)(F)F)cc1 [Example 867, (R)-4-pteridin-7-yl-1-(4-trifluoromethoxy-benzenesulfonyl)-piperazine-2-carboxylic acid (1-phenyl-azetidin-3-ylmethyl)-amide]",–,–,100 to 1000 nM,100 to 1000 nM
